Reference: article PMC10344917, “Affinity and cooperativity modulate ternary complex formation to drive targeted protein degradation” (Nature Communications, 2023)
Read-outs that look alike come from different tables or passages of the source.

Legend:
[1] = target: T1, VHL/EloB/EloC (VBC) (Homo sapiens, UniProt P40337); test: SPR binary binding of PROTAC to VBC-functionalized surface; conditions: SPR; error SEM, N = 3; read-out: KLP (binary binding affinity between E3 ligase VHL and PROTAC)
T1 construct: VHL (54-213), ElonginB (17-112) ElonginC (1-104); made in house
Protocol: SPR experiments were performed on a Biacore 8 K or T200 instrument (Cytiva). […] The running buffer during immobilization was PBS with 0.005% P20. Either high-density (3000-4000 RU) or low-density (300-400 RU) VBC-functionalized surfaces were created, followed by equilibration in the running buffer for 3 h.
PROTACs (10 mM stocks in 100% DMSO) were diluted to 400 nM in a running buffer (20 mM Tris pH 7.5, 200 mM NaCl, 0.02% P20). This stock solution was then serially diluted in the running buffer containing final 2% DMSO. […] For SMARCA2 analysis, biotinylated proteins were introduced on a Series S streptavidin (SA) sensor chip at high-density (3000-4000 RU).
(§1) Raw sensorgrams were processed by performing double reference subtraction, solvent correction, and analysis was done using Biacore Insight Evaluation Software. Kinetic analysis was performed by fitting data to a 1:1 Langmuir interaction model and a steady-state affinity model was used to evaluate equilibrium binding affinity.

[2] = target: T2, SMARCA2-NanoLuc (Homo sapiens, UniProt P51531); test: NanoBRET target engagement assay, live and permeabilized HEK293 cells (SMARCA2); assay type: cell-based; conditions: SMARCA2 NanoBRET TE
T2 construct: expressed in transfected cells; host or cells: HEK293
Protocol: We employed a NanoBRET-based target engagement (TE) assay as reported earlier^7 for evaluating PROTACs relative permeability. In summary, live and permeabilized HEK293 cells with SMARCA2 or BRD4-NanoLuc were used for measuring IC50 values of different PROTACs. The relative shift in the IC50 was evaluated as relative binding affinity (RBA) by taking the ratio of IC50 values of live and permeabilized cells. Availability index (AI), which is a surrogate for permeability can be calculated by taking a ratio of RBA of compounds to permeable benchmark molecules. We used SMARCA bromodomain binding ligand^8 for SMARCA2 PROTACs and JQ1^9, 10 for BRD4 PROTACs as benchmark molecules.
Relative Binding Affinity (RBA) = Live-cell TE IC50 / Permeabilized-cell TE IC50
Availability Index (AI) = RBAtest cmpd / RBApermeable benchmark
Availability Index (AI) greater than one is indicative of reduced permeability compared to the benchmark.

[3] = target: T3, SMARCA2 (Homo sapiens, UniProt P51531); test: SMARCA2 degradation, MSD assay, dose response; assay type: cell-based; parameters: key to AUC (area under the dose-response curve): sum of trapezoids of POC vs dose points, h = 1; conditions: for Dmax: A-375, SMARCA2 degraded; for Dmax / DC50: MSD assay, 2 h timepoint; for Dmax / AUC (area under the dose-response curve) / DC50: A375 cells; for AUC (area under the dose-response curve): SMARCA2 MSD assay, 2 h; for DC50: SMARCA2 degradation
T3 construct: endogenous in cells; host or cells: A375
Protocol: A375 cells were treated with SMARCA2 or BRD4 degraders for 2 h (4 h for BRD4) and generated lysates. SMARCA2 or BRD4 protein was measured with a variation of a sandwich ELISA that was assembled from commercially available antibodies as well as reagents and instrumentation procured from Meso Scale Discovery (MSD). Degradation parameter, DC50, is not suitable for PROTACs that induce partial/incomplete DR curves at a fixed time point; maximum drop in target protein level (Dmax) >>0. Conversely, the area under the curve (AUC) can be calculated as a degradation activity parameter for any DR curve, and it encompasses both the degradation potency (i.e., DC50) and efficacy (i.e., Dmax) of PROTACs.
A 1:3 compound dose-response titration was diluted in growth media (1:20), added to appropriate wells of a cell culture plate (1:10) and then assay plates were incubated at 37 °C, 5% CO2.
Plates were washed with 300 µL per well MSD wash buffer (MSD R61TX-1) between each step. Following the last incubation, plates were washed with MSD wash buffer then 150 µL of MSD read buffer (MSD R92TC-2) was added to each well. Plates were immediately read on a MSD plate reader (MSD Sector Imager 6000).
MSD electrochemiluminescence signals were subtracted by the average background signal from wells with lysis buffer alone. Normalized MSD values (POC) for individual compound treated wells were acquired by dividing background-subtracted assay signal by signal from vehicle control wells (cells + 0.1% DMSO) and multiplying by 100. This POC data was graphed using a nonlinear regression curve fit xy analysis and a log(inhibitor) vs response —variable slope (four parameter) model for dose response curves (Graphpad Prism 9, San Diego, CA, USA). To calculate area under the curve, all points on the curve were connected and vertical lines were drawn from each point down to y = 0, generating a series of trapezoids. The area of each trapezoid was determined using the equation A = (1/2)(h)(b1 + b2), where h = 1 (distance between points), b1 = POC of the first point and b2 = POC of the second point. The sum of all trapezoids provides an approximate area under the curve (AUC). For half-life (t1/2) determination in time course studies, a one-phase decay model was used for curve fitting and the time at which the curve crossed 50 POC was determined through interpolation (Graphpad Prism 9, San Diego, CA, USA).

[4] = target: T4, SMARCA2^BD (Homo sapiens, UniProt P51531); test: SPR binary binding of PROTAC to SMARCA2-functionalized surface; conditions: 1:1 Langmuir binding model, SEM N=3 or SD N=2, read-out: KTP (binary affinity PROTAC / SMARCA2)
T4 construct: SMARCA2^BD 1373–1511 ∆1400–1417; made in house
Protocol: PROTACs (10 mM stocks in 100% DMSO) were diluted to 400 nM in a running buffer (20 mM Tris pH 7.5, 200 mM NaCl, 0.02% P20). This stock solution was then serially diluted in the running buffer containing final 2% DMSO. Solutions were injected in multi-cycle kinetic format without regeneration (contact time 60 s, flow rate 80 μL/min, dissociation time 120 s) using a stabilization period of 30 s and syringe wash (50% DMSO) between injections onto a high-density VBC-functionalized surface. For SMARCA2 analysis, biotinylated proteins were introduced on a Series S streptavidin (SA) sensor chip at high-density (3000-4000 RU).
as §1

[5] = live HEK293 cells, read-out: Live-Cell TE IC50
[6] = permeabilized HEK293 cells, read-out: Permeabilized-Cell TE IC50

T1 sequence (Q15369 17-112): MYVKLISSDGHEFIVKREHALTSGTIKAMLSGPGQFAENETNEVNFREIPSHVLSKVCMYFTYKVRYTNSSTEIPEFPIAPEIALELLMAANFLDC
T1 sequence (Q15370 1-104, further chain): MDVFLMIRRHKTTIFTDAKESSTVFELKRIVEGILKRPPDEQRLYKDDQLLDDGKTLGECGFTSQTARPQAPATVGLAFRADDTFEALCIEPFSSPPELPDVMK
T1 sequence (P40337 54-213): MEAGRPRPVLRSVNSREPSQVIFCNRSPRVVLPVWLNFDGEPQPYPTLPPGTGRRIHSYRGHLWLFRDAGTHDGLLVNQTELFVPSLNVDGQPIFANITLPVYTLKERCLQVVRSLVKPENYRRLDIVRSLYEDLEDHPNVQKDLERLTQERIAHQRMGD
T4 sequence (P51531 1373-1493 isoform P51531-2): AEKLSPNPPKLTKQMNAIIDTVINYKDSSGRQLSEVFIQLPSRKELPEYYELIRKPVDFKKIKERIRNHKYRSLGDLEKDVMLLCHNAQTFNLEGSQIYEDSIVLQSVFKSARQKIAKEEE
T3 sequence (P51531 whole entry): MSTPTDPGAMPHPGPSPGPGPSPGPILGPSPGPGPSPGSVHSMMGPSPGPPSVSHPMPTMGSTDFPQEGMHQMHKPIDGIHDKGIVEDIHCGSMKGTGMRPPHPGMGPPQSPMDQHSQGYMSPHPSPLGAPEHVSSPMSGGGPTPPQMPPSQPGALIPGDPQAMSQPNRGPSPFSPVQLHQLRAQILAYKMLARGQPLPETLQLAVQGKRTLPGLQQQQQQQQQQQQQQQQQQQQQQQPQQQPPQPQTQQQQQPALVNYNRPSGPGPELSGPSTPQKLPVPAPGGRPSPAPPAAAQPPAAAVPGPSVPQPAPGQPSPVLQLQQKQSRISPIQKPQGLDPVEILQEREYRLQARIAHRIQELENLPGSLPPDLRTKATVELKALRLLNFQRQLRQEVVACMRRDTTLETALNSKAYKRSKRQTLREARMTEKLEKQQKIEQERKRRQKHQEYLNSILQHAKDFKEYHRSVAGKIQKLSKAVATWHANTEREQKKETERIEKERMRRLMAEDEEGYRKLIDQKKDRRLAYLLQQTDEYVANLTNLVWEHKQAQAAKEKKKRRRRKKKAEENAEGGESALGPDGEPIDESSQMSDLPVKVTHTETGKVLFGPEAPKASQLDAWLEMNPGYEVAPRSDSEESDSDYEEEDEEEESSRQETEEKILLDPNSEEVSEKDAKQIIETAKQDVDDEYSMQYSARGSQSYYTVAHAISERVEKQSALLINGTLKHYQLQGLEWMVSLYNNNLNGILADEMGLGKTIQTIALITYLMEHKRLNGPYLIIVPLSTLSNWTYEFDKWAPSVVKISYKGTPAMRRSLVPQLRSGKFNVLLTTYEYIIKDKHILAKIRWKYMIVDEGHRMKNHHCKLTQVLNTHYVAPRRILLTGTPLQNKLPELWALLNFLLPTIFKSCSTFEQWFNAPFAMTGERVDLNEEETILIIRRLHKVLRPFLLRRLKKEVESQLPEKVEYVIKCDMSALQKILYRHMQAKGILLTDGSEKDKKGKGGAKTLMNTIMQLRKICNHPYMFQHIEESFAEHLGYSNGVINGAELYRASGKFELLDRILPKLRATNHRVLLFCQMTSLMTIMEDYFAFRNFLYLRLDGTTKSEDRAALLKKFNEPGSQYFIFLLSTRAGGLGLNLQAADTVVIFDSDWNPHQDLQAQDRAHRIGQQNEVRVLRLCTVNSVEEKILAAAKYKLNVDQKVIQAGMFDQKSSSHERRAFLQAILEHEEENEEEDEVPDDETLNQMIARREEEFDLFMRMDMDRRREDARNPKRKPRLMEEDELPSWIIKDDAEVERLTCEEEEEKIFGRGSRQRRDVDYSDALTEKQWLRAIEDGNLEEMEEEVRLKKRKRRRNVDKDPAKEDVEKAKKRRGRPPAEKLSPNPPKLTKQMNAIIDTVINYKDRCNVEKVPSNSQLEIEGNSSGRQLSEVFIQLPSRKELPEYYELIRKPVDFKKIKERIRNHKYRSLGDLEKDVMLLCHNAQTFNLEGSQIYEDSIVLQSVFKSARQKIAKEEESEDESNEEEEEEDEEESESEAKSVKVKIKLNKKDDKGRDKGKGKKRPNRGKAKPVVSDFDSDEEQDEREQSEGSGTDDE
T2 sequence (P51531 whole entry): as above

Kd [1] [nM]	IC50 [2, 5] [nM]	IC50 [2, 6] [nM]	Dmax [3] [%]	AUC (area under the dose-response curve) [3]	DC50 [3] [nM]	Kd [4] [nM]	SMARCA2 degradation ([3]; 2 h MSD assay)	SMILES
210 ± 18	400	200	95	28	95	196 ± 23		Cc1ncsc1-c1ccc([C@H](C)NC(=O)[C@@H]2C[C@@H](O)CN2C(=O)[C@@H](NC(=O)c2cccc(N3CCN(c4cc(-c5ccccc5O)nnc4N)CC3)n2)C(C)(C)C)cc1 [Compound 2, 6-(4-(3-Amino-6-(2-hydroxyphenyl)pyridazin-4-yl)piperazin-1-yl)-N-((S)-1-((2S,4R)-4-hydroxy-2-(((S)-1-(4-(4-methylthiazol-5-yl)phenyl)ethyl)carbamoyl)pyrrolidin-1-yl)-3,3-dimethyl-1-oxobutan-2-yl)picolinamide]
166 ± 15	820	750	96	26	99	232 ± 35		Cc1ncsc1-c1ccc([C@H](C)NC(=O)[C@@H]2C[C@@H](O)CN2C(=O)[C@@H](NC(=O)c2cccc(N3CCN(c4cc(-c5ccccc5O)nnc4N)CC3)c2)C(C)(C)C)cc1 [Compound 4, (2S,4R)-1-((S)-2-(3-(4-(3-Amino-6-(2-hydroxyphenyl)pyridazin-4-yl)piperazin-1-yl)benzamido)-3,3-dimethylbutanoyl)-4-hydroxy-N-((S)-1-(4-(4-methylthiazol-5-yl)phenyl)ethyl)pyrrolidine-2-carboxamide]
60 ± 3	200	150	98	13	28	95 ± 25.5		Cc1ncsc1-c1ccc([C@H](C)NC(=O)[C@@H]2C[C@@H](O)CN2C(=O)[C@@H](NC(=O)c2ccnc(N3CCN(c4cc(-c5ccccc5O)nnc4N)CC3)c2)C(C)(C)C)cc1 [Compound 1, 2-(4-(3-Amino-6-(2-hydroxyphenyl)pyridazin-4-yl)piperazin-1-yl)-N-((S)-1-((2S,4R)-4-hydroxy-2-(((S)-1-(4-(4-methylthiazol-5-yl)phenyl)ethyl)carbamoyl)pyrrolidin-1-yl)-3,3-dimethyl-1-oxobutan-2-yl)isonicotinamide]

More lines, now with the values behind:

SMILES	Kd [1] [nM]	IC50 [2, 5] [nM]	IC50 [2, 6] [nM]	Dmax [3] [%]	AUC (area under the dose-response curve) [3]	DC50 [3] [nM]	Kd [4] [nM]	SMARCA2 degradation ([3]; 2 h MSD assay)
Cc1ncsc1-c1ccc([C@H](C)NC(=O)[C@@H]2C[C@@H](O)CN2C(=O)[C@@H](NC(=O)CCc2ccnc(N3CCN(c4cc(-c5ccccc5O)nnc4N)CC3)c2)C(C)(C)C)cc1 [Compound 8, (2S,4R)-1-((S)-2-(3-(2-(4-(3-Amino-6-(2-hydroxyphenyl)pyridazin-4-yl)piperazin-1-yl)pyridin-4-yl)propanamido)-3,3-dimethylbutanoyl)-4-hydroxy-N-((S)-1-(4-(4-methylthiazol-5-yl)phenyl)ethyl)pyrrolidine-2-carboxamide]	7 ± 2	600	50	80	75	379	49 ± 12	
Cc1ncsc1-c1ccc([C@H](C)NC(=O)[C@@H]2C[C@@H](O)CN2C(=O)[C@@H](NC(=O)c2ccnc(N3CCN(c4cnnc(-c5ccccc5O)c4)CC3)c2)C(C)(C)C)cc1 [Compound 10, N-((S)-1-((2S,4R)-4-Hydroxy-2-(((S)-1-(4-(4-methylthiazol-5-yl)phenyl)ethyl)carbamoyl)pyrrolidin-1-yl)-3,3-dimethyl-1-oxobutan-2-yl)-2-(4-(6-(2-hydroxyphenyl)pyridazin-4-yl)piperazin-1-yl)isonicotinamide]	60 ± 5	2370	5040	65	100	469	745 ± 134	~ 30%
Cc1ncsc1-c1ccc([C@H](C)NC(=O)[C@@H]2C[C@@H](O)CN2C(=O)[C@@H](NC(=O)CN2CCN(c3cc(-c4ccccc4O)nnc3N)CC2)C(C)(C)C)cc1 [Compound 6, (2S,4R)-1-((S)-2-(2-(4-(3-Amino-6-(2-hydroxyphenyl)pyridazin-4-yl)piperazin-1-yl)acetamido)-3,3-dimethylbutanoyl)-4-hydroxy-N-((S)-1-(4-(4-methylthiazol-5-yl)phenyl)ethyl)pyrrolidine-2-carboxamide, reference compound]	11 ± 1	1410	90	96	26	85	14.2 ± 1.6	
Cc1ncsc1-c1ccc(CNC(=O)C2C[C@@H](O)CN2C(=O)C(NC(=O)C2(F)CC2)C(C)(C)C)c(OCCc2ccc(CN3CCN(c4cc(-c5ccccc5O)nnc4N)CC3)cc2)c1 (stereo in doubt) [Compound 11, (2R,4R)-N-(2-(4-((4-(3-amino-6-(2-hydroxyphenyl)pyridazin-4-yl)piperazin-1-yl)methyl)phenethoxy)-4-(4-methylthiazol-5-yl)benzyl)-1-((R)-2-(1-fluorocyclopropane-1-carboxamido)-3,3-dimethylbutanoyl)-4-hydroxypyrrolidine-2-carboxamide, reference compound]	59 ± 5	980	740	53	119	221	302 ± 80	
Cc1ncsc1-c1ccc([C@H](C)NC(=O)[C@@H]2C[C@@H](O)CN2C(=O)[C@@H](NC(=O)Cc2ccnc(N3CCN(c4cc(-c5ccccc5O)nnc4N)CC3)c2)C(C)(C)C)cc1 [Compound 7, (2S,4R)-1-((S)-2-(2-(2-(4-(3-Amino-6-(2-hydroxyphenyl)pyridazin-4-yl)piperazin-1-yl)pyridin-4-yl)acetamido)-3,3-dimethylbutanoyl)-4-hydroxy-N-((S)-1-(4-(4-methylthiazol-5-yl)phenyl)ethyl)pyrrolidine-2-carboxamide]	9 ± 2	690	210	55	122	850	46 ± 8.5	
